Source: PubChem BioAssay AID179 (DTP/NCI, 2004)
Values joined by “and” are separate entries in the source; they are usually repeats but may differ in a detail not shown here. Equal entries are not always repeated. Active and inactive are the calls of the source.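 How the source made its calls: active means compounds giving half or more protection of infected cells from virus-caused growth loss, again on retest; inactive means the rest.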

Test system: CEM cells HIV-1 protection, formazan growth assay
Assay: NCI AIDS Antiviral Assay
Settings: for IC50: measured here: growth of uninfected CEM cells
Outline: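 Five concentrations of each compound were applied to infected and uninfected human CEM cells. Protection from HIV-1 was judged from growth measured with a soluble formazan assay.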

## CC(=O)OCCn1cnc2nc(Nc3ccccc3)nc(Cl)c21
  EC50: > 200 µM
  IC50: 70.8 µM

## O=C(C1OC1c1ccc(Br)cc1O)C12CC3CC(CC(C3)C1)C2 (stereo unspecified)
  EC50: > 200 µM
  IC50: 110 µM

## O=C(c1ccccc1)C(O)(CC(c1ccccc1)[P+](c1ccccc1)(c1ccccc1)c1ccccc1)c1ccccc1 (stereo unspecified)
  EC50: > 200 µM
  IC50: 1.17 µM

## Cc1ccsc1/C=N/Nc1cc(C)c2ccccc2n1
  EC50: > 200 µM
  IC50: 5.37 µM

## CN1C(=O)C2(C=CC(O)CC2)c2ccccc21 (stereo unspecified)
  EC50: > 200 µM
  IC50: > 200 µM

## Clc1nc2n(c1/C=C/c1cccs1)CCS2
  EC50: > 200 µM
  IC50: 20.4 µM

## CSc1nc(Nc2cccc(C(F)(F)F)c2)c2c(N)nn(C)c2n1
  EC50: > 200 µM
  IC50: > 200 µM

## COc1ccc(N=C2SC(=N/N=c3\sc4ccccc4n3C)SC2=Nc2ccc(OC)cc2)cc1
  EC50: > 200 µM
  IC50: 63.1 µM

## O=C1NC2OC(CO)C(O)C(O)C2O1 (stereo unspecified)
  EC50: > 200 µM
  IC50: > 200 µM

## CC(=O)C(C(=O)C(=O)Nc1cc(Cl)c(Cl)cc1Cl)c1csc(N)n1 (stereo unspecified)
  EC50: > 229 µM
  IC50: > 229 µM

## N#CC(NNC(=O)Cc1ccccc1)c1cccc(O)c1 (stereo unspecified)
  EC50: > 468 µM
  IC50: 158 µM

## O=C(O)c1ccc2cc(O)ccc2c1
  EC50: > 200 µM
  IC50: > 200 µM

## Cc1ccc(S(=O)(=O)CN2C(=O)C(c3ccccc3)(c3ccccc3)C23OC(c2ccc(Cl)cc2)=CC3=O)cc1 (stereo unspecified)
  EC50: > 200 µM
  IC50: > 200 µM

## Cc1cc(N(CCC#N)CCC#N)ccc1/C(N=Nc1ccccc1)=N\NC(=O)c1cc(Cl)ccc1O
  EC50: > 200 µM
  IC50: 28.8 µM

## O=C1ON=C2C3CC4CC12CC1(C3)C(=O)ON=C41
  EC50: > 200 µM
  IC50: > 200 µM

## CC1(C)N([O-])[N+](=O)C1(C)O (stereo unspecified)
  EC50: > 200 µM
  IC50: > 200 µM

## CO/N=C\c1ccc2c(c1)Sc1ccccc1O2
  EC50: > 200 µM
  IC50: > 200 µM

## Cc1cn(CC2=NCCCN2)c(=O)[nH]c1=O
  EC50: > 200 µM
  IC50: > 200 µM

## CC(=O)[n+]1nc(-c2nc(N)nc(NC3C4CC5CC(C4)CC3C5)n2)oc1-c1ccc(Cl)cc1 (stereo unspecified)
  EC50: > 11.2 µM
  IC50: > 11.2 µM

## Clc1ccc(/C=N/N=C/c2ccc(Cl)cc2)cc1
  outcome: inactive

## CN(C)/C=N/n1c2ccccc2c2ccccc21
  EC50: > 200 µM
  IC50: 110 µM

## N#C/C(=C\c1ccccc1)c1ccc(F)cc1F
  EC50: > 200 µM
  IC50: 37.2 µM

## CCn1nc(-c2ccccc2)c2c1N(C)c1ccccc1-n1c(-c3ccccc3)nnc1-2
  EC50: > 200 µM
  IC50: 26.3 µM

## CC1(C)CCCC2C1=NOC2O (stereo unspecified)
  EC50: > 1480 µM
  IC50: > 1480 µM

## COC(=O)[C@@H]1O[C@]12[C@@H](CO[Si](C)(C)C(C)(C)C)O[C@@H](n1cc(C)c(=O)[nH]c1=O)[C@@H]2O[Si](C)(C)C(C)(C)C
  EC50: > 200 µM
  IC50: 3.72 µM

## CCCCCCCCCC1CC(=O)c2c(O)cccc2O1 (stereo unspecified)
  EC50: > 18.2 µM
  IC50: > 18.2 µM

## S=C(Nc1ccccn1)Nc1ccccc1Cl
  EC50: > 200 µM
  IC50: 123 µM

## S=C(N1CCN(c2ccc(Cl)c(Cl)c2)CC1)N1CCN(c2ccc(Cl)c(Cl)c2)CC1
  EC50: > 200 µM
  IC50: 10 µM

## CCCCCCCCCCCCCCCCOC1OC(COC(C)=O)C(OC(C)=O)C(OC(C)=O)C1OC(C)=O (stereo unspecified)
  EC50: > 12.6 µM
  IC50: > 12.6 µM

## Cc1cccc(CC(Cc2c(C)cccc2C(=O)O)C(=O)O)c1 (stereo unspecified)
  EC50: > 200 µM
  IC50: > 200 µM

## CC(C)OC(=O)c1ccc(NCC2=CC(=O)C=CC2=O)cc1Cl
  EC50: > 200 µM
  IC50: 9.33 µM

## CC1=C[C@@H]2c3cc(c(O)cc3O)C(=O)[C@H]3C(c4ccc(O)cc4O)CC(C)=C[C@@H]3c3cc(c(O)cc3O)C(=O)C2C(c2ccc(O)cc2O)C1 (stereo partly specified)
  outcome: inactive

## Cc1cc(-c2ccc(N=Nc3c(S(=O)(=O)O)cc4cc(S(=O)(=O)O)cc(N)c4c3O)c(C)c2)ccc1N=Nc1ccc2c(S(=O)(=O)O)ccc(N)c2c1O
  outcome: inactive

## Cc1cc2c(C(C)C)c(O)c(O)c(C=Nc3cccc(C(F)(F)F)c3)c2c(O)c1-c1c(C)cc2c(C(C)C)c(O)c(O)c(C=Nc3cccc(C(F)(F)F)c3)c2c1O
  outcome: inactive

## S=C1CNC(=S)CN1
  outcome: inactive

## O=C1c2cccc3c([N+](=O)[O-])ccc(c23)C(=O)N1CC1CCCO1 (stereo unspecified)
  EC50: > 2 µM
  IC50: 0.195 µM

## O=C(/C=C/c1ccc2c(c1)OCO2)c1cccc2ccccc12
  EC50: > 6.61 µM
  IC50: > 6.61 µM

## COc1cnnc2c(C)c(-c3ccccc3)nn12
  EC50: > 200 µM
  IC50: 46.8 µM

## O=C1C=C(N2CC2)C(=O)C(N2CC2)=C1N1CC1
  EC50: > 10.7 µM
  IC50: 0.0324 µM

## O=C(CCCCCCCCC(=O)NCC1(c2ccccc2)CCNCC1)NCC1(c2ccccc2)CCNCC1
  EC50: > 100 µM
  IC50: > 100 µM

## COC=C(c1cc(Br)c(OC)c(C(=O)OC)c1)c1cc(Br)c(OC)c(C(=O)OC)c1
  EC50: > 200 µM
  IC50: 13.5 µM

## CC(=O)OC1COC(n2c(N)c(C#N)c(-c3ccccc3)c(C#N)c2=S)C(OC(C)=O)C1OC(C)=O (stereo unspecified)
  EC50: > 200 µM
  IC50: 33.9 µM and 36.3 µM

## c1n[nH]cc1C12C3C4C5C3C1C5C42 (stereo unspecified)
  EC50: > 200 µM
  IC50: 120 µM

## CCS1=C(C(C)=O)C(=O)O[C@H](C)C1 (stereo partly specified)
  EC50: > 1230 µM
  IC50: > 1230 µM

## CSc1c(C(=O)Nc2ccc(C)cc2)c(N)nn1-c1ccccc1
  EC50: > 200 µM
  IC50: > 200 µM

## NNC(=O)c1ccc(-n2nnc(C(=O)NN)c2C(=O)NN)cc1
  EC50: > 501 µM
  IC50: > 501 µM

## CCP(=O)(CC)C(Cl)Cl
  EC50: > 200 µM
  IC50: > 200 µM

## Cc1cccc(C(C)(C)C)c1NC(=O)/C(Cc1nc2ccc([N+](=O)[O-])cc2[nH]c1=O)=N/NC(=O)C[N+](C)(C)C
  EC50: > 437 µM
  IC50: 60.3 µM

## O=C(OCCc1ccccc1)c1cc2cc(O)c(O)cc2cn1
  EC50: > 8.32 µM
  IC50: > 8.32 µM

## CC1(C)CC(=O)C(/C=N/c2nc(-c3ccc(Br)cc3)cs2)=C(O)C1
  EC50: > 200 µM
  IC50: 115 µM

## COc1ccc(C(=O)c2ccccc2)c(O)c1
  EC50: > 200 µM
  IC50: > 200 µM

## CN(C)/N=C1\C=C2CC[C@H](O[Si](C)(C)C(C)(C)C)[C@@]2(C)CC1
  EC50: > 200 µM
  IC50: 12.3 µM

## Oc1cc(F)cc2cccnc12
  outcome: inactive

## COC(=O)C1=C(C(=O)OC)C2(OC(C)=O)c3ccccc3-c3ccccc3C12 (stereo unspecified)
  EC50: > 2.51 µM
  IC50: 1.35 µM

## O=C1c2cccc3cc([N+](=O)[O-])cc(c23)C(=O)N1CCCN(CCO)CCO
  outcome: inactive

## CCOP(=O)(OCC)c1cc(-c2ccccc2)ccc1N
  EC50: > 200 µM
  IC50: > 200 µM

## CCOC(=O)c1sc2nc(SC)nc(N3CCCCC3)c2c1N
  EC50: > 100 µM
  IC50: > 100 µM

## CCCCCCCCCCCC(=O)OCC1OC(n2cc(F)c(=O)[nH]c2=O)C(NC(=O)OCc2ccccc2)C(O)C1O (stereo unspecified)
  EC50: > 30.9 µM
  IC50: > 30.9 µM

## N=S(c1ccccc1)c1ccccc1[N+](=O)[O-] (stereo unspecified)
  EC50: > 158 µM
  IC50: 1.7 µM

## O=c1[nH]c(=O)n(C2OC(CO)C(O)C2O)c2ncc(-c3ccc(-c4ccccc4)cc3)nc12 (stereo unspecified)
  EC50: > 20 µM
  IC50: > 20 µM

## C/C(CC(=O)Nc1ccc(Cl)cc1)=N\NC(N)=S
  EC50: > 871 µM
  IC50: 123 µM

## c1cnc2c(c1)ccc1cccnc12
  EC50: > 200 µM
  IC50: 1.17 µM

## CCOC(=O)CC(C)CCO (stereo unspecified)
  EC50: > 1550 µM
  IC50: > 1550 µM

## c1ccc(C2SCc3nc4ccccc4n32)cc1 (stereo unspecified)
  EC50: > 141 µM
  IC50: 35.5 µM

## Cc1ccc2nc(-c3ccccc3[N+](=O)[O-])[nH]c2c1
  EC50: > 269 µM
  IC50: 57.5 µM

## CC(C)Sc1nncc(/C(N)=N/O)n1
  EC50: > 200 µM
  IC50: > 200 µM

## COc1cccc(NC(=O)c2c(SC)c(C#N)c(=O)n(N)c2N)c1
  EC50: > 200 µM
  IC50: 107 µM

## Cc1c(C(=O)C(=O)c2ccccc2)c(C)c(C(=O)C(=O)c2ccccc2)c(C)c1C(=O)C(=O)c1ccccc1
  EC50: > 200 µM
  IC50: > 200 µM

## CCCCCCCCO/N=C\c1c2c(O)c3c(O)c(C)c4c(c3c1O)C(=O)C(C)(O/C=C\C(OC)C(C)C(OC(C)=O)C(C)C(O)C(C)C(O)C(C)/C=C\C=C(\C)C(=O)N2)O4 (stereo unspecified)
  EC50: > 200 µM
  IC50: 3.89 µM

## Brc1ccc(CCc2ncc[nH]2)cc1
  EC50: > 282 µM
  IC50: 174 µM

## CC(NS(=O)(=O)c1ccc([N+](=O)[O-])cc1)C(=O)O (stereo unspecified)
  outcome: inactive

## S=c1n(-c2ccc(Cl)cc2)c2/c(=N\Nc3cc(Cl)ccc3Cl)c(n1-c1ccccn1)=NCCN=2
  EC50: > 200 µM
  IC50: > 200 µM

## O=C(Cn1ccnc1[N+](=O)[O-])c1ccccc1
  EC50: > 562 µM
  IC50: > 562 µM

## CC12CCC[C@@](C)(C(=O)OC3OC(CO)C(O)C(O)C3O)[C@H]1CCC13CC4CC(OC4(CO)[C@H]1O)[C@@H]23 (stereo partly specified)
  outcome: inactive

## Nc1n[n+](CC(=O)c2ccccc2)c2sc(-c3ccccc3)nn12
  EC50: > 200 µM
  IC50: 45.7 µM

## COC(=O)C1=C(C)C=C(N2CCOCC2)C(C(=O)OC)C1c1ccccc1 (stereo unspecified)
  EC50: > 200 µM
  IC50: > 200 µM

## c1ccc(P2CCc3[nH]c4ccccc4c3C2)cc1 (stereo unspecified)
  EC50: > 38 µM
  IC50: > 38 µM

## Cc1ccc(-c2nc(C)c(C(=O)Nc3ccc(Cl)cc3)s2)cc1
  EC50: > 200 µM
  IC50: > 200 µM

## Cc1cn(C2CC(N=[N+]=[N-])C(COC(=O)[C@H]3CCC4[C@@H]5CCC6=CC(=O)CC[C@]6(C)C5[C@@H](O)C[C@@]43C)O2)c(=O)[nH]c1=O (stereo partly specified)
  EC50: 0.138 µM
  IC50: 24 µM

## CC(=O)/C(=N\Nc1ccc(Cl)cc1)C(C)=Nc1ccc(C)cc1
  EC50: > 200 µM
  IC50: 30.2 µM

## CN1C/C(=C\c2cccs2)C(O)/C(=C/c2cccs2)C1 (stereo unspecified)
  EC50: > 200 µM
  IC50: 115 µM

## S=C1N=C(Cl)C2(NN1)c1ccccc1-c1ccccc12
  EC50: > 200 µM
  IC50: > 200 µM

## CC1CC[C@@]23CCC4(C)[C@@](C=CC5[C@@]6(C)CCC(=O)C(C)(C)C6CC[C@]54C)(OC2=O)[C@@H]3[C@H]1C (stereo partly specified)
  outcome: inactive

## N#Cc1c(C#N)c(-c2ccccc2)n(Cc2ccccc2)c1N
  EC50: > 200 µM
  IC50: > 200 µM

## COc1cc2c(cc1O)N=C[C@@H]1CCC(O)N1C2=O (mixture of isomers)
  EC50: > 324 µM
  IC50: 0.575 µM

## CCCCCCCCCCCc1noc2c1C(=O)C(O)CC2 (stereo unspecified)
  outcome: inactive
